The target of experiment [1] is T1, Pyridoxine-5'-phosphate oxidase (Mus musculus) (UniProt Q91XF0).
T1 sequence (whole entry): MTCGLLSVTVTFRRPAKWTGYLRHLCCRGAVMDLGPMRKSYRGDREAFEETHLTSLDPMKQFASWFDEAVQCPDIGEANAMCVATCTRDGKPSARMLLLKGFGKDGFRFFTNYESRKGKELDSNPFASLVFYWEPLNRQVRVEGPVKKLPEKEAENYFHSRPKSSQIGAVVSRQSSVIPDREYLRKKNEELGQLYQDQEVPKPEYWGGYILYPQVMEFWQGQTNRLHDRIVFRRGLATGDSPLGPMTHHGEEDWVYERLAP
In words: Inhibition of pyridoxine phosphate oxidase in mouse TA3 cells assessed as inhibition of 1 x 10^-7 M pyridoxal-induced cell growth. Format: cell-based.

Experiment [2] deals with T1, Pyridoxine-5'-phosphate oxidase (Mus musculus). In words: Inhibition of pyridoxine phosphate oxidase in mouse TA3 cells assessed as inhibition of 1 x 10^-7 M pyridoxal-induced cell growth at 10^-4 M. Format: cell-based.
For experiment [3], the target named is T2, Pyridoxine-5'-phosphate oxidase (Homo sapiens, UniProt Q9NVS9).
T2 sequence (Q9NVS9 whole entry): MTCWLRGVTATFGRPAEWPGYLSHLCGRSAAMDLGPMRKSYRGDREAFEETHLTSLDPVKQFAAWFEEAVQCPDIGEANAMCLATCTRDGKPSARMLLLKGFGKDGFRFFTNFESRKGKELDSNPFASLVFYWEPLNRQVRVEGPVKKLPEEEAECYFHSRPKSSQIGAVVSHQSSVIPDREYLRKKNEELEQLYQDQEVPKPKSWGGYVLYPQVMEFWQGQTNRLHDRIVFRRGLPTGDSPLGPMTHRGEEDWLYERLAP
Put plainly: Non-competitive inhibition of pyridoxine phosphate oxidase (unknown origin) assessed as oxidation of pyridoxol 5'-phosphate by Lineweaver-Burk plot analysis.

The target in experiment [4] is T3, Pyridoxal kinase (Homo sapiens, UniProt O00764).
T3 sequence (O00764 whole entry): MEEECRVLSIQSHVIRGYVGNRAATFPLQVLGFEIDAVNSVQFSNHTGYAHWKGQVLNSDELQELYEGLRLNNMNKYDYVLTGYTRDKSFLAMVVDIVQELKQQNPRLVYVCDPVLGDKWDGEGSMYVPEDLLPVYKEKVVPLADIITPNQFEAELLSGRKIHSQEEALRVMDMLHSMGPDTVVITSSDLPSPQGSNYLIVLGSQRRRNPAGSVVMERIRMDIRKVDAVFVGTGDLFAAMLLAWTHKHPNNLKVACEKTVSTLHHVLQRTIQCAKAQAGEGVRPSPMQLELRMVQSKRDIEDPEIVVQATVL
In words: Non-competitive inhibition of pyridoxal phosphokinase (unknown origin).

The target of experiment [5] is T1, Pyridoxine-5'-phosphate oxidase (Mus musculus). Put plainly: Inhibition of pyridoxine phosphate oxidase in mouse TA3 cells assessed as inhibition of 10^-5 M pyridoxal-induced cell growth. It is filed as cell-based.
The target of experiment [6] is T3, Pyridoxal kinase. In words: Competitive inhibition of pyridoxal phosphokinase (unknown origin).
Experiment [7] has as its target T4, Pyridoxine-5'-phosphate oxidase (Homo sapiens) (UniProt Q9NVS9).
T4 sequence (whole entry): T2 sequence (Q9NVS9 whole entry)
Put plainly: Competitive inhibition of pyridoxine phosphate oxidase (unknown origin) assessed as oxidation of pyridoxol 5'-phosphate by Lineweaver-Burk plot analysis.

As a reminder, the Ki is the dissociation constant of the complex between target and ligand, obtained from inhibition or displacement.

SMILES strings stand for the structures. The source made the active and inactive calls. The calls are words filed in the database; no cut-off is given here.

Turning to `C=C/C=C/c1c(COCc2ccccc2)cnc(C)c1OCc1ccccc1`, the ID50 in experiment [1] came to 1.5 ×10⁻⁵ M. In the case of `CC/C=C/c1c(COCc2ccccc2)cnc(C)c1OCc1ccccc1`, the ID50 in experiment [1] was found to be 1.5 ×10⁻⁵ M.

In the case of `CC(=O)c1c(CO)cnc(C)c1O`, in experiment [2], the inhibition entry is “inactive”. `Cc1ncc(CO)c(/C=C/Br)c1O`: in experiment [1], the ID50 was 1.2 ×10⁻⁵ M.

Consider `C#Cc1c(COP(=O)(O)O)cnc(C)c1O`, for which the ID50 in experiment [1] worked out at 3.8 µM. Further, the Ki in experiment [3] worked out at 0.55 µM. Turning to `C=C(Cl)c1c(CO)cnc(C)c1O`, in experiment [1], the ID50 was 9.5 µM. As to `C#Cc1c(CO)cnc(C)c1O`, the Ki at Pyridoxal kinase [4] worked out at 125 µM. The ID50 in experiment [5] turned out to be 9 ×10⁻⁵ M; in experiment [1], 8 µM.

For the molecule `Cc1ncc(COCc2ccccc2)c(/C=C/Cl)c1OCc1ccccc1`, the ID50 in experiment [1] worked out at 3 µM.

Take `Cc1ncc(CO)c(C)c1O`: in experiment [5], the “growth inhibition (GI)” value is “inactive”. The ID50 in experiment [1] turned out to be 6.8 ×10⁻⁸ M.

For `C=Cc1c(CO)cnc(C)c1O`, the affinity at Pyridoxal kinase [6] corresponds to a Ki of 22.5 µM. The “growth inhibition (GI)” value in experiment [5] was “inactive”. In addition, in experiment [7], the inhibition result is “Active”. Further, the ID50 in experiment [1] was determined as 0.0025 µM.

Values taken from ChEMBL document CHEMBL3272067, “4-Halovinyl- and 4-ethynyl-4-deformylpyridoxal derivatives and related analogues as potentially irreversible antagonists of vitamin B6” (J Med Chem, 1977).
